In patent publication US6251882A, “Alkyl ketones as potent anti-cancer agents” (Parker Hughes Institute, priority 1999, dated 2001):
Residues, ends and D or L forms follow the SMILES beside them. *: point of attachment. Farnesyl = CC(C)=CCC/C(C)=C/CC/C(C)=C/C*; Boc = CC(C)(C)OC(=O)*; CHN2 = [N-]=[N+]=C*

What was measured:
PC-3 (prostate cancer) = assay: MTT cytotoxicity assay, PC-3; assay type: cell-based; conditions: 24-36 hours at 37° C., 0.1 to 250 μM
Experimental: (§1) Cytotoxicity of various compounds against tumor cells was performed using the MTT (3-[4,5-[…]]-2,5-diphenyl tetrazolium bromide) assay (Boehringer Mannheim Corp., Indianapolis, Ind.). Unless otherwise specified, all cell lines were obtained from the American Type Culture Collection (ATCC). Briefly, exponentially growing cells were seeded into a 96-well plate at a density of 2.5×10^4 cells/well and incubated for 36 hours at 37° C. prior to drug exposure. On the day of treatment, culture medium was carefully aspirated from the wells and replaced with fresh medium containing the indicated compound at concentrations ranging from 0.1 to 250 μM. Triplicate wells were used for each treatment.
(§2) The cells were incubated with the various compounds for 24-36 hours at 37° C. in a humidified 5% CO2 atmosphere. To each well, 10 μl of MTT (0.5 mg/ml final concentration) was added and the plates were incubated at 37° C. for 4 hours to allow MTT to form formazan crystals by reacting with metabolically active cells. The formazan crystals were solubilized overnight at 37° C. in a solution containing 10% SDS in 0.01 M HCl. The absorbence of each well was measured in a microplate reader (Labsystems) at 540 nm and a reference wavelength of […]. To translate the OD540 values into the number of live cells in each well, the OD540 values were compared to those on standard OD540 --versus--cell number curves generated for each cell line. The percent survival was calculated using the formula: [formula]
(§3) The IC50 values were calculated by non-linear regression analysis and are shown below in Tables 1-6.

Nalm-6 (B-lineage ALL) = assay: MTT cytotoxicity assay, Nalm-6; assay type: cell-based; conditions: Homo sapiens, 24-36 hours at 37° C., 0.1 to 250 μM
Experimental: as §1
(§4) Human leukemic cell lines (NALM-6, MOLT-3) glioblastoma cells (U373) and human breast tumor cell lines (BT20 and MDA-MB-231) were obtained from the American Type Culture Collection and maintained as a continuous cell line in Dulbecco's modified Eagles's medium supplemented with 10% fetal bovine serum and antibiotics.
as §2, §3

BT-20 (breast cancer) = assay: MTT cytotoxicity assay, BT-20; assay type: cell-based; conditions: Homo sapiens, 24-36 hours at 37° C., 0.1 to 250 μM
Experimental: as §1, §4, §2, §3

U-373 (glioblastoma) = assay: MTT cytotoxicity assay, U-373; assay type: cell-based; conditions: Homo sapiens, U373 MG, 24-36 hours at 37° C., 0.1 to 250 μM
Experimental: as §1, §4, §2, §3

Molt-3 (T-lineage ALL) = assay: MTT cytotoxicity assay, Molt-3; assay type: cell-based, human; conditions: Homo sapiens, MOLT-3, MTT, 24-36 hours at 37° C., 0.1 to 250 μM
Experimental: as §1, §4, §2, §3

**Q.** CCCCCCCCCCCCSC[C@H](NC(C)=O)C(=O)N(C)OC [HI-267, N-Ac-S-dodecyl-Cys-N(OCH3)-CH3] was tested. Which IC50 (PC-3 (prostate cancer)) did it give?
**A.** > 100 µM

**Q.** And the IC50 (Nalm-6 (B-lineage ALL))?
**A.** 50.1 µM

**Q.** And the IC50 (BT-20 (breast cancer))?
**A.** > 100 µM

**Q.** What about the IC50 (U-373 (glioblastoma)) of the same compound?
**A.** > 100 µM

**Q.** Which results are given for CC(C)=CCC/C(C)=C/CC/C(C)=C/CSC[C@H](NC(=O)OC(C)(C)C)C(=O)C=[N+]=[N-] [HI-82, N-Boc-S-farnesyl-Cys diazomethyl ketone]?
**A.** IC50 (PC-3 (prostate cancer)): > 100 µM; IC50 (Nalm-6 (B-lineage ALL)): 49.8 µM; IC50 (BT-20 (breast cancer)): > 100 µM; IC50 (Molt-3 (T-lineage ALL)): 50.1 µM; IC50 (U-373 (glioblastoma)): > 100 µM

**Q.** How did the IC50 (PC-3 (prostate cancer)) turn out when CCCCCCCCCCCCSC[C@H](NC(C)=O)C(=O)CSc1c(F)c(F)c(F)c(F)c1F [HI-399] was run?
**A.** 91.6 µM

**Q.** And the IC50 (Nalm-6 (B-lineage ALL))?
**A.** 91.2 µM

**Q.** And the IC50 (BT-20 (breast cancer))?
**A.** > 100 µM

**Q.** What about the IC50 (Molt-3 (T-lineage ALL)) of the same compound?
**A.** 40.8 µM

**Q.** What about the IC50 (U-373 (glioblastoma)) of the same compound?
**A.** > 100 µM

**Q.** For CC(=O)N[C@@H](CSC(c1ccccc1)(c1ccccc1)c1ccccc1)C(=O)CCl [HI-350, N-Ac-S-trityl-cysteine chloromethyl ketone], which IC50 (PC-3 (prostate cancer)) is on record?
**A.** 52.2 µM

**Q.** And the IC50 (Nalm-6 (B-lineage ALL))?
**A.** 10 µM

**Q.** What about the IC50 (BT-20 (breast cancer)) of the same compound?
**A.** 88.8 µM

**Q.** And the IC50 (Molt-3 (T-lineage ALL))?
**A.** 26.4 µM

**Q.** What about the IC50 (U-373 (glioblastoma)) of the same compound?
**A.** 87.1 µM

**Q.** Which IC50 (PC-3 (prostate cancer)) does the source give for CC(C)=CCC/C(C)=C/CC/C(C)=C/CSCCC(=O)CCl [HI-125, S-trans-trans-Farnesyl-2-mercaptoethyl chloromethyl ketone] here?
**A.** > 100 µM

**Q.** What about the IC50 (Nalm-6 (B-lineage ALL)) of the same compound?
**A.** 40.7 µM

**Q.** And the IC50 (BT-20 (breast cancer))?
**A.** > 100 µM

**Q.** What about the IC50 (Molt-3 (T-lineage ALL)) of the same compound?
**A.** 35.5 µM

**Q.** What about the IC50 (U-373 (glioblastoma)) of the same compound?
**A.** > 100 µM

**Q.** Which IC50 (PC-3 (prostate cancer)) does the source give for CC(=O)N[C@@H](CSC/C=C(\C)CCC=C(C)C)C(=O)CCl [HI-127, N-Ac-S-trans-geranyl-Cys chloromethyl ketone] here?
**A.** > 100 µM

**Q.** And the IC50 (Nalm-6 (B-lineage ALL))?
**A.** > 100 µM

**Q.** And the IC50 (BT-20 (breast cancer))?
**A.** > 100 µM

**Q.** What about the IC50 (Molt-3 (T-lineage ALL)) of the same compound?
**A.** > 100 µM

**Q.** What about the IC50 (U-373 (glioblastoma)) of the same compound?
**A.** > 100 µM

**Q.** Which IC50 (PC-3 (prostate cancer)) does the source give for CCCCCCCCCCCCSC[C@H](NC(=O)OCC)C(=O)CCl [HI-319] here?
**A.** > 100 µM

**Q.** What about the IC50 (Nalm-6 (B-lineage ALL)) of the same compound?
**A.** 77.6 µM

**Q.** What about the IC50 (BT-20 (breast cancer)) of the same compound?
**A.** > 100 µM

**Q.** What about the IC50 (Molt-3 (T-lineage ALL)) of the same compound?
**A.** 84.2 µM

**Q.** What about the IC50 (U-373 (glioblastoma)) of the same compound?
**A.** > 100 µM

**Q.** For CCCCCCCCCCCCSC[C@H](NC(=O)C(F)(F)F)C(=O)CCl [HI-490, N-Trifluoroacetyl-S-dodecyl-cysteine chloromethyl ketone], which IC50 (PC-3 (prostate cancer)) is on record?
**A.** > 100 µM

**Q.** And the IC50 (Nalm-6 (B-lineage ALL))?
**A.** 32.6 µM

**Q.** What about the IC50 (BT-20 (breast cancer)) of the same compound?
**A.** > 100 µM

**Q.** What about the IC50 (Molt-3 (T-lineage ALL)) of the same compound?
**A.** 41.3 µM

**Q.** What about the IC50 (U-373 (glioblastoma)) of the same compound?
**A.** > 100 µM

**Q.** Which IC50 (PC-3 (prostate cancer)) does the source give for CCCCCCCCCCCCSC[C@H](NC(C)=O)C(=O)C=[N+]=[N-] [HI-348, N-Ac-S-dodecyl-Cys diazomethyl ketone] here?
**A.** > 100 µM

**Q.** What about the IC50 (Nalm-6 (B-lineage ALL)) of the same compound?
**A.** 15.4 µM

**Q.** And the IC50 (BT-20 (breast cancer))?
**A.** 97.9 µM

**Q.** And the IC50 (Molt-3 (T-lineage ALL))?
**A.** 22.9 µM

**Q.** What about the IC50 (U-373 (glioblastoma)) of the same compound?
**A.** > 100 µM

**Q.** Which IC50 (PC-3 (prostate cancer)) does the source give for CC(C)=CCC/C(C)=C/CC/C(C)=C/CSC[C@H](NC(=O)OC(C)(C)C)C(=O)CCl [HI-124, N-Boc-S-farnesyl-Cys chloromethyl ketone] here?
**A.** > 100 µM

**Q.** And the IC50 (Nalm-6 (B-lineage ALL))?
**A.** 10.7 µM

**Q.** What about the IC50 (BT-20 (breast cancer)) of the same compound?
**A.** > 100 µM

**Q.** And the IC50 (Molt-3 (T-lineage ALL))?
**A.** 7.7 µM

**Q.** What about the IC50 (U-373 (glioblastoma)) of the same compound?
**A.** > 100 µM

**Q.** With CCCCCCCCCCCCSC[C@H](NC(=O)OC(C)(C)C)C(=O)CCl [HI-129, N-Boc-S-dodecyl-Cys chloromethyl ketone] as the compound, how does the IC50 (PC-3 (prostate cancer)) read?
**A.** 64.6 µM

**Q.** And the IC50 (Nalm-6 (B-lineage ALL))?
**A.** 15.1 µM

**Q.** And the IC50 (BT-20 (breast cancer))?
**A.** 48.9 µM

**Q.** What about the IC50 (Molt-3 (T-lineage ALL)) of the same compound?
**A.** 15.5 µM

**Q.** What about the IC50 (U-373 (glioblastoma)) of the same compound?
**A.** > 100 µM

**Q.** CC(=O)N[C@@H](CSC(=O)OCc1ccccc1)C(=O)CCl [HI-389, N-Ac-S-benzyloxycarbonyl-cysteine chloromethyl ketone] was tested. Which IC50 (PC-3 (prostate cancer)) did it give?
**A.** 23.4 µM

**Q.** And the IC50 (Nalm-6 (B-lineage ALL))?
**A.** 1.2 µM

**Q.** What about the IC50 (BT-20 (breast cancer)) of the same compound?
**A.** 49.3 µM

**Q.** What about the IC50 (Molt-3 (T-lineage ALL)) of the same compound?
**A.** 3.5 µM

**Q.** And the IC50 (U-373 (glioblastoma))?
**A.** 54.4 µM

**Q.** Which results are given for CCCCCCCCCCCCSC[C@H](NC(=O)OCc1ccccc1)C(=O)CCl [HI-320, N-Benzyloxycarbonyl-S-dodecylcysteine chloromethyl ketone]?
**A.** IC50 (PC-3 (prostate cancer)): > 100 µM; IC50 (Nalm-6 (B-lineage ALL)): 13.5 µM; IC50 (BT-20 (breast cancer)): > 100 µM; IC50 (Molt-3 (T-lineage ALL)): > 100 µM; IC50 (U-373 (glioblastoma)): > 100 µM

**Q.** CC(C)=CCC/C(C)=C/CC/C(C)=C/CSC[C@H](NC(=O)CNC(=O)OC(C)(C)C)C(=O)C=[N+]=[N-] [HI-401, N-Boc-Gly-S-trans-trans-farnesyl-Cys diazomethyl ketone] (Boc-Gly-Cys(Farnesyl)-CHN2) was tested. Which IC50 (PC-3 (prostate cancer)) did it give?
**A.** 90.6 µM

**Q.** What about the IC50 (Nalm-6 (B-lineage ALL)) of the same compound?
**A.** 51.3 µM

**Q.** What about the IC50 (BT-20 (breast cancer)) of the same compound?
**A.** 95.1 µM

**Q.** What about the IC50 (Molt-3 (T-lineage ALL)) of the same compound?
**A.** 84.5 µM

**Q.** And the IC50 (U-373 (glioblastoma))?
**A.** > 100 µM

**Q.** How did the IC50 (PC-3 (prostate cancer)) turn out when CCCCCCCCCCCCSC[C@H](NC(C)=O)C(=O)CBr [HI-488, N-Ac-S-dodecyl-cysteine bromomethyl ketone] was run?
**A.** 39.6 µM

**Q.** And the IC50 (Nalm-6 (B-lineage ALL))?
**A.** 1.3 µM

**Q.** And the IC50 (BT-20 (breast cancer))?
**A.** 33.8 µM

**Q.** What about the IC50 (Molt-3 (T-lineage ALL)) of the same compound?
**A.** 3.19 µM

**Q.** What about the IC50 (U-373 (glioblastoma)) of the same compound?
**A.** 22.5 µM

**Q.** How did the IC50 (PC-3 (prostate cancer)) turn out when CCCCCCCCCCCCSC[C@H](NC(C)=O)C(=O)CSC(c1ccccc1)(c1ccccc1)c1ccccc1 [HI-365] was run?
**A.** > 100 µM

**Q.** What about the IC50 (Nalm-6 (B-lineage ALL)) of the same compound?
**A.** 93.1 µM

**Q.** And the IC50 (BT-20 (breast cancer))?
**A.** > 100 µM

**Q.** What about the IC50 (Molt-3 (T-lineage ALL)) of the same compound?
**A.** 97.3 µM

**Q.** What about the IC50 (U-373 (glioblastoma)) of the same compound?
**A.** > 100 µM
